Experimental data reported in publication PMC3571899, “M48U1 CD4 mimetic has a sustained inhibitory effect on cell-associated HIV-1 by attenuating virion infectivity through gp120 shedding” (Retrovirology, 2013).

Tests used:
[1] = system: HIV-1 Bal; test: Antiviral EC50 in PBMCs against HIV-1 Bal; format: cell-based; settings: linear regression analysis, one experiment with 6 replicates
[2] = system: HIV-1 Bal; test: Infectivity of de novo virus from pretreated, washed infected PBMCs (memory effect); format: cell-based; settings: for relative titer of de novo produced virions: PBMCs pretreated 24 h at 100x EC50, washed, 24 h drug-free, titrated on TZM-bl cells with equal p24, relative to untreated control
Protocol: Figure 1 M48U1 has a memory effect on cell-associated virus. A) The Trojan Horse transmission concept was modeled in vitro using HIV-infected PBMCs which were treated for 24 h with antiretrovirals (ARVs) from different classes at 100x EC50 concentrations. Subsequently, virus production was quantified using a Gag p24 ELISA. To mimic escape from vaginal drug pressure, the infected cells were then incubated in ARV-free medium for three consecutive periods of 24 h. Infectivity of newly produced virions was determined after each period by titration in TZM-bl cells and PBMCs using equal amounts of p24. B) Production of Gag p24 by infected PBMCs during 24 h treatment with eleven ARVs: the non-nucleoside reverse transcriptase inhibitors (NNRTIs; blue) UC781 and TMC120, the nucleotide reverse transcriptase inhibitor tenofovir (PMPA; red), the entry inhibitors (grey) maraviroc (MVC), T-20, C34-chol, griffithsin (GRFT) and M48U1, the protease inhibitors (green) lopinavir (LPV) and saquinavir (SQV), and the integrase inhibitor raltegravir (RAL). Values are expressed relative to untreated control cultures and represent the mean +/− SEM of at least three independent experiments, each carried out in triplicate. C) Bal infectivity of de novo produced virus by pretreated infected PBMCs in absence of drug during three consecutive periods of 24 h. Values are expressed relative to untreated control cultures and represent the mean +/− SEM of at least three independent experiments, each carried out in triplicate. D) Infectivity of de novo produced transmitted/founder viruses REJO and THRO (subtype B) and Bal by M48U1 treated infected PBMCs in absence of drug during three consecutive periods of 24 h. Values are expressed relative to untreated control cultures. E) Infectivity of wild type (black) and M48U1-resistant (red) Bal virus produced during a 24 h period in absence of drug by pretreated infected PBMCs. Values represent the 50% Tissue Culture Infective Dose (TCID50)/ml as measured in one experiment carried out in triplicate.
PHA/IL-2 stimulated PBMCs were infected with 2 x 10^-3 multiplicity of infection (MOI) of the CCR5-tropic subtype B strain Bal for three days and subsequently washed extensively to remove the inoculum (Figure 1A). Next, cells were incubated for 24 hours with ARVs from different classes at 100x EC50 concentrations for each compound (Table 1). The virions produced from these cultures were then quantified in quadruplicate by a Gag p24 capture ELISA [18].
Next, we evaluated whether these ARVs affected the infectivity of the virus produced. PBMCs were infected as described above and were washed extensively to remove inhibitor and incubated in fresh medium for a new round of viral replication. After 24 h, supernatant was harvested, and then assessed for its ability to infect TZM-bl cells using identical viral inocula (based on equal amounts of Gag p24). The obtained viral titers were expressed as a percentage, relative to the untreated control cultures (Figure 1C). […] A smaller loss in titer was observed after treatment with the PIs saquinavir (relative titer of 47%) and lopinavir (relative titer of 14%), and the carbohydrate binding protein griffithsin (relative titer of 31%). The same samples were assayed in a multi-cycle infectivity assay with PBMCs, with similar results (Figure 1C). […]

[3] = system: HIV-1 Bal infected PBMCs; test: Gag p24 production by infected PBMCs during 24 h ARV treatment (p24 capture ELISA); format: cell-based; settings: 24 h treatment at 100x EC50, Gag p24 capture ELISA
Protocol: Figure 1 M48U1 has a memory effect on cell-associated virus. A) The Trojan Horse transmission concept was modeled in vitro using HIV-infected PBMCs which were treated for 24 h with antiretrovirals (ARVs) from different classes at 100x EC50 concentrations. Subsequently, virus production was quantified using a Gag p24 ELISA. To mimic escape from vaginal drug pressure, the infected cells were then incubated in ARV-free medium for three consecutive periods of 24 h. Infectivity of newly produced virions was determined after each period by titration in TZM-bl cells and PBMCs using equal amounts of p24. […] Values represent the 50% Tissue Culture Infective Dose (TCID50)/ml as measured in one experiment carried out in triplicate.
PHA/IL-2 stimulated PBMCs were infected with 2 x 10^-3 multiplicity of infection (MOI) of the CCR5-tropic subtype B strain Bal for three days and subsequently washed extensively to remove the inoculum (Figure 1A). […] The virions produced from these cultures were then quantified in quadruplicate by a Gag p24 capture ELISA [18].

[4] = system: H9+ cells; settings: pretreatment of infected cells, syncytium formation; cited from earlier work
Text: We hypothesized that M48U1 associates with gp120 molecules expressed on the cell membrane of infected cells prior to viral budding. If M48U1 dissociates very slowly from its target and is retained after washing, this could cause the production of defective virions. However, if this were the case, one would expect a similar attenuation effect for the tight-binding RT inhibitors UC781 and TMC120.

[5] = Human immunodeficiency virus 1, PBMC

Molecule	EC50 [1, 5]	relative titer of de novo produced virions [2]	lower Gag p24 concentration in culture supernatant vs untreated control [3]	reduction in the infectivity of de novo produced virus [4]	times less infectious than virions from control cultures ([2]; 72 hours post-exposure, TZM-bl cells and PBMCs)	EC50 [1]
C[C@H](Cn1cnc2c(N)ncnc21)OCP(=O)(O)O [Tenofovir (TFV)]	4800 nM					
CC(C)(C)NC(=O)[C@@H]1C[C@@H]2CCCC[C@@H]2CN1C[C@@H](O)[C@H](Cc1ccccc1)NC(=O)[C@H](CC(N)=O)NC(=O)c1ccc2ccccc2n1 [Saquinavir (SQV)]	35 nM	47%	0.5-1 log			
Cc1nnc(C(=O)NC(C)(C)c2nc(C(=O)NCc3ccc(F)cc3)c(O)c(=O)n2C)o1 [Raltegravir (RLT)]	18 nM					
Cc1cccc(C)c1OCC(=O)N[C@@H](Cc1ccccc1)[C@@H](O)C[C@H](Cc1ccccc1)NC(=O)[C@H](C(C)C)N1CCCNC1=O [Lopinavir (LPV)]	40 nM	14%	0.5-1 log			
CC(C)=CCOc1cc(NC(=S)c2ccoc2C)ccc1Cl [UC781]	35 nM	75%		fivefold reduction		
Cc1cc(C)c(Nc2ccnc(Nc3ccc(C#N)cc3)n2)c(C)c1 [Dapivirine (TMC120)]	5 nM					
Griffithsin (GRFT): carbohydrate binding protein, binds glycans on gp120		31%			two	1.5 nM
